Test results taken from the NIST ThermoML archive (doi:10.1016/j.jct.2006.06.005).

Test: xn = mol fraction of the nth substance listed
Conditions: 101 kPa, Liquid

CN1CCCC1=O [N-methylpyrrolidone] + Cc1ccccc1
Conditions | mass density [kg/m3] | viscosity [mPa·s]
303.15 K, x2 = 0 | 1023.47 | 1.554
303.15 K, x2 = 0.1071 | 1006.98 | 1.399
303.15 K, x2 = 0.2121 | 990.67 | 1.258
303.15 K, x2 = 0.3156 | 974.42 | 1.138
303.15 K, x2 = 0.4177 | 958.02 | 1.021
303.15 K, x2 = 0.5185 | 941.54 | 0.923
303.15 K, x2 = 0.6174 | 925 | 0.822
303.15 K, x2 = 0.7151 | 907.95 | 0.727
303.15 K, x2 = 0.8114 | 890.99 | 0.65
303.15 K, x2 = 0.9064 | 874.21 | 0.566
313.15 K, x2 = 0 | 1014.55 | 1.332
313.15 K, x2 = 0.1071 | 998.03 | 1.21
313.15 K, x2 = 0.2121 | 981.67 | 1.088
313.15 K, x2 = 0.3156 | 965.37 | 0.991
313.15 K, x2 = 0.4177 | 948.91 | 0.89
313.15 K, x2 = 0.5185 | 932.4 | 0.803
313.15 K, x2 = 0.6174 | 915.81 | 0.719
313.15 K, x2 = 0.7151 | 898.7 | 0.642
313.15 K, x2 = 0.8114 | 881.69 | 0.575
313.15 K, x2 = 0.9064 | 864.87 | 0.516
323.15 K, x2 = 0 | 1005.66 | 1.16
323.15 K, x2 = 0.1071 | 989.08 | 1.061
323.15 K, x2 = 0.2121 | 972.67 | 0.956
323.15 K, x2 = 0.3156 | 956.3 | 0.87
323.15 K, x2 = 0.4177 | 939.78 | 0.783
323.15 K, x2 = 0.5185 | 923.24 | 0.71
323.15 K, x2 = 0.6174 | 906.6 | 0.639
323.15 K, x2 = 0.7151 | 889.42 | 0.572
323.15 K, x2 = 0.8114 | 872.36 | 0.514
323.15 K, x2 = 0.9064 | 855.48 | 0.463
333.15 K, x2 = 0 | 996.71 | 1.022
333.15 K, x2 = 0.1071 | 980.08 | 0.932
333.15 K, x2 = 0.2121 | 963.63 | 0.844
333.15 K, x2 = 0.3156 | 947.17 | 0.766
333.15 K, x2 = 0.4177 | 930.61 | 0.695
333.15 K, x2 = 0.5185 | 914.01 | 0.632
333.15 K, x2 = 0.6174 | 897.3 | 0.57
333.15 K, x2 = 0.7151 | 880.06 | 0.514
333.15 K, x2 = 0.8114 | 862.94 | 0.463
333.15 K, x2 = 0.9064 | 845.99 | 0.418
343.15 K, x2 = 0 | 987.75 | 0.908
343.15 K, x2 = 0.1071 | 971.08 | 0.844
343.15 K, x2 = 0.2121 | 954.56 | 0.751
343.15 K, x2 = 0.3156 | 938.03 | 0.683
343.15 K, x2 = 0.4177 | 921.4 | 0.622
343.15 K, x2 = 0.5185 | 904.74 | 0.566
343.15 K, x2 = 0.6174 | 887.95 | 0.518
343.15 K, x2 = 0.7151 | 870.65 | 0.464
343.15 K, x2 = 0.8114 | 853.44 | 0.418
343.15 K, x2 = 0.9064 | 836.42 | 0.379
353.15 K, x2 = 0 | 978.76 | 0.8127
353.15 K, x2 = 0.1071 | 962 | 0.7651
353.15 K, x2 = 0.2121 | 945.42 | 0.6769
353.15 K, x2 = 0.3156 | 928.81 | 0.617
353.15 K, x2 = 0.4177 | 912.13 | 0.5616
353.15 K, x2 = 0.5185 | 895.4 | 0.513
353.15 K, x2 = 0.6174 | 878.51 | 0.464
353.15 K, x2 = 0.7151 | 861.11 | 0.422
353.15 K, x2 = 0.8114 | 843.83 | 0.381
353.15 K, x2 = 0.9064 | 826.71 | 0.347
